Test results reported in patent US4985441A, “Anti-tumor agents” (Imperial Chemical Industries plc, priority 1988, dated 1991).

Experiments:
liver and kidney = settings: clinical; literature references; cited from earlier work
[1] = system: human breast, ovarian and liver cancer; settings: clinical; literature references; cited from earlier work
thymidylate synthetase = biological target: T1, thymidylate synthetase (Mus musculus, UniProt P07607); assay: Test (a): in vitro inhibition of thymidylate synthetase (partially purified from L1210 mouse leukaemia cells); format: biochemical; settings: enzyme partially purified from L1210 mouse leukaemia cells; read-out: IC50 against thymidylate synthetase [Test (a)]
T1 construct: obtained in partially purified form from L1210 mouse leukaemia cells; endogenous in cells; host or cells: L1210 mouse leukaemia cells (enzyme partially purified)
T1 sequence (P07607 whole entry): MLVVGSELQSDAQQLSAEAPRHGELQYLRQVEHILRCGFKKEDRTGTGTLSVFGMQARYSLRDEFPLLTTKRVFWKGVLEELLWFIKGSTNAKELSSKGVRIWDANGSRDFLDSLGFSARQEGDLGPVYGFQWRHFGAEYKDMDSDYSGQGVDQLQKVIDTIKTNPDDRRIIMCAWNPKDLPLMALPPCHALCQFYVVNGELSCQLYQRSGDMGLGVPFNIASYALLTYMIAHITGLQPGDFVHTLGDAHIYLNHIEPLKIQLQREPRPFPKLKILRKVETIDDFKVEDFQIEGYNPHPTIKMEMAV
Description: (a) An in vitro assay which determines the ability of a test compound to inhibit the enzyme thymidylate synthetase. Thymidylate synthetase may be obtained in partially purified form from L1210 mouse leukaemia cells and utilised using the procedures described by Jackman et al. (Cancer Res., 1986, 46, 2810);

L1210 cell line = assay: Test (b): inhibition of growth of the leukaemia cell line L1210 in cell culture; format: cell-based; settings: Mus musculus, read-out: IC50 against the L1210 cell line [Test (b)]
Description: Compounds of the CB3717 type are believed to act as anti-tumour agents by inhibiting the enzyme thymidylate synthetase. The anti-tumour activity of CB3717 may be assessed in vitro by determining its inhibitory effect on that enzyme, and in cell cultures by its inhibitory effect on cancer cell lines such as the mouse leukaemia cell lines L1210 and L5178Y TK-/- and the breast cancer cell line MCF-7.
(b) An assay which determines the ability of a test compound to inhibit the growth of the leukaemia cell line L1210 in cell culture. The test is similar to that described in UK Patent Specification No. 2065653B;

| SMILES | toxicity in humans (liver and kidney) | activity against human breast, ovarian and liver cancer [1] | IC50 (thymidylate synthetase) [µM] | IC50 (L1210 cell line) [µM] |
| --- | --- | --- | --- | --- |
| C#CCN(Cc1ccc2nc(N)[nH]c(=O)c2c1)c1ccc(C(=O)N[C@@H](CCC(=O)O)C(=O)O)cc1 [CB3717] | symptoms of toxicity in humans, particularly in relation to the liver and kidney | promising activity against human breast, ovarian and liver cancer |  |  |
| C#CCN(Cc1ccc2nc(C)nc(O)c2c1)c1ccc(C(=O)NCCC)cc1 [p-[N-(3,4-dihydro-2-methyl-4-oxoquinazolin-6-ylmethyl)-N-(prop-2-ynyl)amino]-N-propylbenzamide] |  |  | 1.8 | 7 |
